Legend:
Corn [1] = test: Greenhouse test, combination of Procedures II and III: insecticide in-furrow or in cover layer, herbicide and antidote incorporated in cover layer (Examples 1-3, 6; Tables 1-3, 6); type: in vivo; details: for % Corn Injury PN 3377 / % Corn Injury PN 3320: 3 weeks; for Percent Injury Corn: 7 weeks; for corn injury safened: 0.14 kg/ha herbicide plus Insecticide No. 1, Antidote No. 1 0.42 kg/ha
VELE (velvetleaf) [2] = test: Greenhouse test Procedure II (Example 4; Table 4); type: in vivo, Abutilon theophrasti; details: 3 weeks
Protocol: (§1) Containers were filled and compacted with a fumigated silt loam top soil to a depth of about 1.3 cm from the top of the container. A first container was designated as an untreated control, a second container was designated as a herbicide control, and a third container was designated as a herbicide + antidote test container. Each of the containers was seeded with a crop species. A measured amount of herbicide dispersed or dissolved in acetone was applied to a measured quantity of soil. To this same quantity of soil treated with herbicide, there was added a measured amount of antidote dispersed or dissolved in acetone. The quantity of soil treated with the herbicide and antidote was thoroughly mixed to incorporate the herbicide and antidote in the soil uniformly. The seed bed in the third container of soil was covered with the soil treated with the herbicide and antidote and the container was leveled. For each test series, the seed beds of the first and second containers were likewise covered by soil layers. the cover layer of the first container was not treated with herbicide or antidote.
This procedure is the same as Procedure I, but modified in the manner that after incorporation of the chemicals (herbicide, antidote and insecticide), the containers with the covered seedbed were treated with an initial overhead irrigation equivalent to 0.6 cm rainfall, then subsequently sub-irrigated as required on greenhouse benches.
The procedure used in this test was Procedure No. 2 above. Formulations of herbicide, insecticide and antidote were applied via track sprayer sequentially onto cover layers, incorporated into the soil which was spread over seedbeds, then irrigated from above with 0.6 cm water. Observations were made three (3) weeks after treatment.

Corn [3] = test: Field trials, PPI, PRE and POE herbicide applications with terbufos (Example 7); type: in vivo
Source text: This example summarizes the results of one series of field trials from a plurality of locations and soil types wherein test chemicals were applied in various modes including pre-plant incorporated (PPI), post emergence (POE) and preemergence (PRE) with and without a safener (antidote). Test Chemicals were Herbicide Nos 1, 2, 3 and 7-9; Insecticide No. 1 and Antidote No. 1.
In these trials Insecticide No. 1 (terbufos) was T-banded or furrow applied at labeled rates prior to planting corn. PPI herbicide treatments were applied prior to insecticide applications; PRE treatments were applied after the insecticide application either prior to or after seeding the corn. POE herbicide applications were made at 2 corn-growth stages, i.e., early post (EP) at the 2-3 leaf stage and late post (LP) at the 4-7 leaf stage. Plots were small plot with 3 replications in a randomized complete block design. In the PRE and PPI herbicide treatments, Antidote No. 1 was applied as a tankmix in both treatments. In the POE herbicide treatments, that antidote was applied as a tank mix with the herbicide at the EP and LP stages.

VELE (velvetleaf) [4] = test: Greenhouse test Procedure I with PPI or POE herbicide and foliar insecticide (Example 5; Table 5); type: in vivo, Abutilon theophrasti; details: 3 weeks
Protocol: as §1
(§2) Insecticide application was made as described in the tests in the examples below. The containers were then placed on a bench in a greenhouse and sub-irrigated as required for the duration of the test.
(§3) Said herbicide and antidote were sequentially pipetted onto cover layers, which were spread over the seed beds and subirrigated as in Procedure I and allowed to grow to a height of about 10 cm over a period of 11 days. Herbicide No. 1 and Insecticide No. 2 were then sequentially sprayed on the plant foliage. Observations were made three (3) weeks after initial treatment, 10 days after foliar treatment).

Corn [5] = test: as above; type: in vivo; details: for % Injury Corn: 3 weeks
Protocol: as §1, §2, §3

[6] = Ex. 6: Insecticide 2 0.23 Kg/305m + Antidote 1 0.42 + Herbicide 1 0.14 Kg/Ha
[7] = Ex. 6: Insecticide 2 0.23 Kg/305m + Antidote 1 0.56 + Herbicide 1 0.56 Kg/Ha
[8] = Ex. 6: Insecticide 2 0.23 Kg/305m + Antidote 1 1.68 + Herbicide 1 0.56 Kg/Ha
[9] = Antidote 1 0.14 + Herbicide 1 0.14 Kg/Ha PPI
[10] = Antidote 1 0.56 + Herbicide 1 0.56 Kg/Ha PPI
[11] = Antidote 1 2.24 + Herbicide 1 2.24 Kg/Ha PPI
[12] = Insecticide 2 1.68 (foliar) + Antidote 1 0.14 + Herbicide 1 0.14 Kg/Ha PPI
[13] = Insecticide 2 1.68 (foliar) + Antidote 1 2.24 + Herbicide 1 2.24 Kg/Ha PPI
[14] = Insecticide 2 1.68 (foliar) + Antidote 1 2.24 Kg/Ha PPI, no herbicide

**Q.** CC1(C)OC(c2ccco2)CN1C(=O)C(Cl)Cl (stereo not shown) [Antidote No. 1, Oxazolidine, 3-(dichloroacetyl)-2,2-dimethyl-5-(2-furanyl)-] was tested. Which “% Corn Injury PN 3377” value (Corn [1]; Ex. 6: Insecticide 2 0.23 Kg/305m + Antidote 1 0.14 + Herbicide 1 0.14 Kg/Ha) did it give?
**A.** Its value is 0%.

**Q.** What about the “% Corn Injury PN 3320” value (Corn [1]; [6]) of the same molecule?
**A.** The value was 10%.

**Q.** And the “% Corn Injury PN 3377” value (Corn [1]; [6])?
**A.** The value was 13%.

**Q.** What about the “% Corn Injury PN 3320” value (Corn [1]; [7]) of the same molecule?
**A.** The value was 68%.

**Q.** What about the “% Corn Injury PN 3377” value (Corn [1]; [7]) of the same molecule?
**A.** The value was 10%.

**Q.** What about the “% Corn Injury PN 3320” value (Corn [1]; [8]) of the same molecule?
**A.** Its value is 43%.

**Q.** And the “% Corn Injury PN 3377” value (Corn [1]; [8])?
**A.** Its value is 28%.

**Q.** What about the “Percent Injury Corn” value (Corn [1]; Insecticide 1 0.23 kg/305m + Antidote 1 0.14 + Herbicide 1 0.14 Kg/Ha) of the same molecule?
**A.** Its value is 8%.

**Q.** And the “Percent Injury Corn” value (Corn [1]; Insecticide 1 0.23 kg/305m + Antidote 1 0.14 Kg/Ha, no herbicide)?
**A.** Its value is 0%.

**Q.** What about the “Percent Injury Corn” value (Corn [1]; Insecticide 1 0.23 kg/305m + Antidote 1 0.56 + Herbicide 1 0.56 Kg/Ha) of the same molecule?
**A.** The value was 25%.

**Q.** What about the “Percent Injury Corn” value (Corn [1]; Insecticide 1 0.23 kg/305m + Antidote 1 0.56 Kg/Ha, no herbicide) of the same molecule?
**A.** Its value is 0%.

**Q.** What about the “Percent Injury Corn” value (Corn [1]; Insecticide 1 0.23 kg/305m + Antidote 1 2.24 + Herbicide 1 2.24 Kg/Ha) of the same molecule?
**A.** The value was 77%.

**Q.** What about the “Percent Injury Corn” value (Corn [1]; Insecticide 1 0.23 kg/305m + Antidote 1 2.24 Kg/Ha, no herbicide) of the same molecule?
**A.** Its value is 0%.

**Q.** And the “Percent Injury Corn” value (Corn [1]; Insecticide 1 (H2O) (crystals scattered in-furrow) + Antidote 1 2 + Herbicide 1 2 Kg/Ha)?
**A.** Its value is 78%.

**Q.** What about the “Percent Injury Corn” value (Corn [1]; Insecticide 1 (H2O) (crystals scattered in-furrow) + Antidote 1 2 Kg/Ha) of the same molecule?
**A.** Its value is 13%.

**Q.** What about the “Percent Injury Corn” value (Corn [1]; Insecticide 2 3.36 kg/ha + Antidote 1 0.14 + Herbicide 1 0.14 Kg/Ha) of the same molecule?
**A.** The value was 75%.

**Q.** And the “Percent Injury Corn” value (Corn [1]; Insecticide 2 3.36 kg/ha + Antidote 1 0.14 Kg/Ha, no herbicide)?
**A.** Its value is 0%.

**Q.** What about the “Percent Injury Corn” value (Corn [1]; Insecticide 2 3.36 kg/ha + Antidote 1 0.56 + Herbicide 1 0.56 Kg/Ha) of the same molecule?
**A.** Its value is 70%.

**Q.** What about the “Percent Injury Corn” value (Corn [1]; Insecticide 2 3.36 kg/ha + Antidote 1 0.56 Kg/Ha, no herbicide) of the same molecule?
**A.** Its value is 0%.

**Q.** What about the “Percent Injury Corn” value (Corn [1]; Insecticide 2 3.36 kg/ha + Antidote 1 2.24 + Herbicide 1 2.24 Kg/Ha) of the same molecule?
**A.** The value was 92%.

**Q.** What about the “Percent Injury Corn” value (Corn [1]; Insecticide 2 3.36 kg/ha + Antidote 1 2.24 Kg/Ha, no herbicide) of the same molecule?
**A.** Its value is 0%.

**Q.** What about the corn injury safened (Corn [1]; sensitive genotype PN 3320) of the same molecule?
**A.** The corn injury safened was 74%.

**Q.** What about the corn injury safened (Corn [1]; tolerant genotype PN 3377) of the same molecule?
**A.** Its corn injury safened is 96%.

**Q.** And the “% Injury VELE” value (VELE (velvetleaf) [2]; Antidote 1 0.07 + Herbicide 1 0.07 kg/Ha)?
**A.** The value was 8%.

**Q.** And the “% Injury VELE” value (VELE (velvetleaf) [2]; Antidote 1 0.07 + Herbicide 4 0.07 kg/Ha)?
**A.** The value was 0%.

**Q.** And the “% Injury VELE” value (VELE (velvetleaf) [2]; Antidote 1 0.07 + Herbicide 5 0.07 kg/Ha)?
**A.** The value was 68%.

**Q.** What about the “% Injury VELE” value (VELE (velvetleaf) [2]; Antidote 1 0.07 + Herbicide 6 0.07 kg/Ha) of the same molecule?
**A.** The value was 5%.

**Q.** And the “% Injury VELE” value (VELE (velvetleaf) [2]; Antidote 1 0.14 + Herbicide 1 0.14 kg/Ha)?
**A.** Its value is 43%.

**Q.** And the “% Injury VELE” value (VELE (velvetleaf) [2]; Antidote 1 0.14 + Herbicide 4 0.14 kg/Ha)?
**A.** Its value is 30%.

**Q.** And the “% Injury VELE” value (VELE (velvetleaf) [2]; Antidote 1 0.14 + Herbicide 5 0.14 kg/Ha)?
**A.** The value was 68%.

**Q.** What about the “% Injury VELE” value (VELE (velvetleaf) [2]; Antidote 1 0.14 + Herbicide 6 0.14 kg/Ha) of the same molecule?
**A.** Its value is 28%.

**Q.** And the “% Injury VELE” value (VELE (velvetleaf) [2]; Insecticide 2 3.36 + Antidote 1 0.014 + Herbicide 1 0.14 kg/Ha)?
**A.** Its value is 53%.

**Q.** What about the “% Injury VELE” value (VELE (velvetleaf) [2]; Insecticide 2 3.36 + Antidote 1 0.07 + Herbicide 1 0.07 kg/Ha) of the same molecule?
**A.** Its value is 23%.

**Q.** And the “% Injury VELE” value (VELE (velvetleaf) [2]; Insecticide 2 3.36 + Antidote 1 0.07 + Herbicide 4 0.07 kg/Ha)?
**A.** Its value is 0%.

**Q.** What about the “% Injury VELE” value (VELE (velvetleaf) [2]; Insecticide 2 3.36 + Antidote 1 0.07 + Herbicide 5 0.07 kg/Ha) of the same molecule?
**A.** The value was 55%.

**Q.** What about the “% Injury VELE” value (VELE (velvetleaf) [2]; Insecticide 2 3.36 + Antidote 1 0.07 + Herbicide 6 0.07 kg/Ha) of the same molecule?
**A.** The value was 15%.

**Q.** What about the “% Injury VELE” value (VELE (velvetleaf) [2]; Insecticide 2 3.36 + Antidote 1 0.14 + Herbicide 4 0.14 kg/Ha) of the same molecule?
**A.** Its value is 78%.

**Q.** And the “% Injury VELE” value (VELE (velvetleaf) [2]; Insecticide 2 3.36 + Antidote 1 0.14 + Herbicide 5 0.14 kg/Ha)?
**A.** The value was 83%.

**Q.** What about the “% Injury VELE” value (VELE (velvetleaf) [2]; Insecticide 2 3.36 + Antidote 1 0.14 + Herbicide 6 0.14 kg/Ha) of the same molecule?
**A.** The value was 40%.

**Q.** And the “safening of insecticide interactions” value (Corn [3]; antidote tankmix POE with Herbicide No. 7, Insecticide No. 1)?
**A.** The value was “effectively safened”.

**Q.** What about the “crop injury” value (Corn [3]; mean of nine locations, PRE and PPI, Insecticide No. 1, 1:1 Herbicide No. 1:Antidote No. 1 and 30:1 Herbicide No. 2:Antidote No. 1) of the same molecule?
**A.** Its value is “reduced from non-commercially-acceptable to commercially-acceptable levels”.

**Q.** What about the “% Injury VELE” value (VELE (velvetleaf) [4]; [9]) of the same molecule?
**A.** Its value is 85%.

**Q.** What about the “% Injury VELE” value (VELE (velvetleaf) [4]; [10]) of the same molecule?
**A.** Its value is 80%.

**Q.** And the “% Injury VELE” value (VELE (velvetleaf) [4]; [11])?
**A.** Its value is 93%.

**Q.** What about the “% Injury VELE” value (VELE (velvetleaf) [4]; [12]) of the same molecule?
**A.** The value was 90%.

**Q.** What about the “% Injury VELE” value (VELE (velvetleaf) [4]; Insecticide 2 1.68 (foliar) + Antidote 1 0.56 + Herbicide 1 0.56 Kg/Ha PPI) of the same molecule?
**A.** Its value is 93%.

**Q.** What about the “% Injury VELE” value (VELE (velvetleaf) [4]; [13]) of the same molecule?
**A.** The value was 93%.

**Q.** What about the “% Injury VELE” value (VELE (velvetleaf) [4]; [14]) of the same molecule?
**A.** Its value is 0%.

**Q.** What about the “% Injury Corn” value (Corn [5]; [9]) of the same molecule?
**A.** Its value is 0%.

**Q.** What about the “% Injury Corn” value (Corn [5]; [10]) of the same molecule?
**A.** Its value is 5%.

**Q.** And the “% Injury Corn” value (Corn [5]; [11])?
**A.** Its value is 0%.

**Q.** What about the “safening” value (Corn [5]; Ex. 5: PPI Herbicide No. 1 with or without Insecticide No. 2) of the same molecule?
**A.** The value was “safened PPI herbicide treatments”.

**Q.** And the “% Injury Corn” value (Corn [5]; [12])?
**A.** Its value is 0%.

**Q.** What about the “% Injury Corn” value (Corn [5]; [13]) of the same molecule?
**A.** Its value is 0%.

**Q.** And the “% Injury Corn” value (Corn [5]; [14])?
**A.** The value was 0%.

Source: patent EP0565593B1, “REDUCING PESTICIDAL INTERACTIONS IN CROPS” (priority 1990, dated 1992)
